Experimental data taken from patent EP0353821B1, “Antipsychotic 3-piperazinyl-benzazole derivatives” (JANSSEN PHARMACEUTICA N.V., priority 1988, dated 1990).
Where two headings read alike, the source gives them in different places.

Assays:
[1] = tested on: apomorphine-induced phenomena: agitation and stereotypic chewing; experiment: Combined apomorphine-, tryptamine- and norepinephrine test in rats: apomorphine (APO) part; type: in vivo, adult male Wistar rats; settings: Rattus norvegicus, read-out: Combined test in rats, ED₅₀ in mg/kg (APO)
Description: (§1) The combined apomorphine (APO)-, tryptamine (TRY)- and norepinephrine (NOR) test in rats.
(§2) The experimental animals used in this test were adult male Wistar rats (weight 240 ± 10g). After an overnight fast the animals were treated subcutaneously or orally with an aqueous solution of the compound under investigation (1ml/100g body weight) (time = zero) and put in isolated observation cages. […] At the end of this 1 hour period (time = 90 minutes) the same animals were injected intravenously with 40 mg/kg of tryptamine (TRY) and the presence of the typical tryptamine-induced bilateral tonic seizures and hyperaemia of the ears was noted. Two hours after pretreatment (time = 120 minutes) finally, the same animals were challenged with 1.25 mg/kg intravenously of norephinephrine (NOR) and possible mortality was looked for up to 60 minutes later.
(§3) The table 3 gives the ED₅₀-values of a number of the compounds under consideration. As used herein, the ED₅₀-value represents the dose which protects 50% of the animals from apomorphine-, tryptamine- or norepinephrine-induced phenomena.

[2] = tested on: tryptamine-induced bilateral tonic seizures and hyperaemia of the ears; experiment: Combined apomorphine-, tryptamine- and norepinephrine test in rats: tryptamine (TRY) part; type: in vivo, adult male Wistar rats; settings: Rattus norvegicus, 1.5 h, compound subcutaneously or orally, 40 mg/kg tryptamine i.v. at 90 minutes, dose which protects 50% of the animals, read-out: Combined test in rats
Description: as §1, §2, §3

[3] = tested on: apomorphine (emesis); experiment: The apomorphine test in dogs (APO-dog); type: in vivo, beagle dogs; settings: Canis lupus familiaris, 1 h; compound subcutaneously or orally; 0.31 mg/kg (s.c.) apomorphine one hour thereafter; dose which protects 50% of the animals from emesis; read-out: (APO)-dog test, ED₅₀ in mg/kg
Description: The apomorphine test in dogs (APO-dog).
The method used is described by P.A.J. Janssen and C.J.E. Niemegeers in Arzneim.-Forsch. (Drug Res.), 9, 765-767 (1959). The compounds listed in table 3 were administered subcutaneously or orally to beagle dogs at different doses and the animals were challenged one hour thereafter with a standard dose of 0.31 mg/kg (s.c.) of apomorphine.
The table 3 gives the ED₅₀-values of a number of the compounds under consideration. As used herein, the ED₅₀ value represents the dose which protects 50% of the animals from emesis.

[4] = tested on: norepinephrine-induced phenomena (mortality); experiment: Combined apomorphine-, tryptamine- and norepinephrine test in rats: norepinephrine (NOR) part; type: in vivo, adult male Wistar rats; settings: Rattus norvegicus; compound subcutaneously or orally; 1.25 mg/kg norepinephrine i.v. at 120 minutes; mortality up to 60 minutes later; dose which protects 50% of the animals; read-out: Combined test in rats; ED₅₀ in mg/kg (NOR)
Description: as §1, §2, §3

[5] = compound subcutaneously or orally, 1.25 mg/kg apomorphine i.v. at 30 minutes, observed 1 hour, dose which protects 50% of the animals
[6] = bilateral tonic seizures, ED₅₀ in mg/kg (TRY)-convulsions
[7] = hyperaemia of the ears, ED₅₀ in mg/kg (TRY)-hyperaemia

| Compound | ED50 [1, 5] | ED50 [2, 6] | ED50 [2, 7] | ED50 [3] | ED50 [4] | ED50 [1] |
| --- | --- | --- | --- | --- | --- | --- |
| Cc1nc2n(c(=O)c1CCN1CCN(c3noc4cc(F)ccc34)CC1)CCS2 [Compound 3, 6-[2-[4-(6-fluoro-1,2-benzisoxazol-3-yl)-1-piperazinyl]ethyl]-2,3-dihydro-7-methyl-5H-thiazolo[3,2-a]pyrimidin-5-one] | 0.02 mg/kg | 0.005 mg/kg | 0.00125 mg/kg | 0.07 mg/kg | 0.08 mg/kg | – |
| Cc1nc2ccccn2c(=O)c1CCN1CCN(c2nsc3ccccc23)CC1 [Compound 11] | – | 0.08 mg/kg | 0.00031 mg/kg | 0.45 mg/kg | 1.25 mg/kg | 0.08 mg/kg |
| Cc1nc2ccccn2c(=O)c1CCN1CCN(c2noc3cc(F)ccc23)CC1 [Compound 15] | 0.04 mg/kg | 0.08 mg/kg | 0.005 mg/kg | 0.015 mg/kg | 0.31 mg/kg | – |
| Cc1nc2ccccn2c(=O)c1CCN1CCN(c2n[nH]c3cc(F)ccc23)CC1 [Compound 16] | 0.08 mg/kg | 0.08 mg/kg | 0.005 mg/kg | < 0.01 mg/kg | – | – |
| Cc1nc2n(c(=O)c1CCN1CCN(c3noc4cc(F)ccc34)CC1)CCCC2 [Compound 20] | 0.08 mg/kg | 0.08 mg/kg | 0.005 mg/kg | 0.015 mg/kg | – | – |
| Cc1nc2n(c(=O)c1CCN1CCN(c3noc4cc(F)ccc34)CC1)CCCS2 [Compound 25] | 0.08 mg/kg | 0.08 mg/kg | ≤ 0.01 mg/kg | 0.06 mg/kg | 0.31 mg/kg | – |
| Cc1nc2n(c(=O)c1CCN1CCN(c3nsc4ccccc34)CC1)CCS2 [Compound 26] | 0.08 mg/kg | 0.02 mg/kg | 0.00125 mg/kg | 0.03 mg/kg | 5 mg/kg | – |
| Cc1nc2n(c(=O)c1CCN1CCN(c3noc4ccccc34)CC1)CCS2 [Compound 27] | 0.03 mg/kg | 0.03 mg/kg | 0.00125 mg/kg | 0.06 mg/kg | 0.31 mg/kg | – |
| Cc1nc2sccn2c(=O)c1CCN1CCN(c2noc3ccccc23)CC1 [Compound 31] | – | 0.02 mg/kg | 0.00031 mg/kg | 0.03 mg/kg | 1.25 mg/kg | 0.03 mg/kg |
| Cc1nc2sccn2c(=O)c1CCN1CCN(c2noc3cc(F)ccc23)CC1 [Compound 34] | 0.02 mg/kg | 0.08 mg/kg | < 0.01 mg/kg | 0.015 mg/kg | 0.31 mg/kg | – |
| Cc1nc2scc(C)n2c(=O)c1CCN1CCN(c2noc3cc(F)ccc23)CC1 [Compound 39] | 0.08 mg/kg | 0.04 mg/kg | < 0.04 mg/kg | 0.03 mg/kg | 0.31 mg/kg | – |
| Cc1nc2scc(C)n2c(=O)c1CCN1CCN(c2n[nH]c3cc(F)ccc23)CC1 [Compound 40] | 0.02 mg/kg | 0.02 mg/kg | 0.00031 mg/kg | 0.0025 mg/kg | 0.08 mg/kg | – |
| Cc1nc2ccccn2c(=O)c1CCN1CCN(c2n[nH]c3ccccc23)CC1 [Compound 41] | – | 0.04 mg/kg | 0.005 mg/kg | 0.03 mg/kg | 1.25 mg/kg | 0.08 mg/kg |
| Cc1nc2c(C)cccn2c(=O)c1CCN1CCN(c2noc3ccccc23)CC1 [Compound 45] | – | 0.08 mg/kg | 0.02 mg/kg | > 0.01 mg/kg | 1.25 mg/kg | 0.04 mg/kg |
| Cc1nc2c(C)cccn2c(=O)c1CCN1CCN(c2n[nH]c3cc(F)ccc23)CC1 [Compound 47] | 0.04 mg/kg | 0.08 mg/kg | 0.000125 mg/kg | 0.001 mg/kg | 0.08 mg/kg | – |
| Cc1nc2n(c(=O)c1CCN1CCN(c3nsc4ccccc34)CC1)CCCC2C (stereo not drawn) [Compound 55] | 0.04 mg/kg | 0.04 mg/kg | 0.0025 mg/kg | > 0.016 mg/kg | 10 mg/kg | – |
| Cc1nc2n(c(=O)c1CCN1CCN(c3n[nH]c4cc(F)ccc34)CC1)CCCC2C (stereo not drawn) [Compound 56] | 0.08 mg/kg | 0.08 mg/kg | 0.005 mg/kg | 0.00045 mg/kg | 0.16 mg/kg | – |
| Cc1nc2sccn2c(=O)c1CCN1CCN(c2n[nH]c3cc(F)ccc23)CC1 [Compound 63] | 0.02 mg/kg | 0.02 mg/kg | 0.00125 mg/kg | 0.001 mg/kg | 0.16 mg/kg | – |
| Cc1nc2sccn2c(=O)c1CCN1CCN(c2n[nH]c3ccccc23)CC1 [Compound 64] | – | 0.08 mg/kg | 0.005 mg/kg | – | 1.25 mg/kg | 0.08 mg/kg |
| Cc1nc2scc(C)n2c(=O)c1CCN1CCN(c2n[nH]c3ccccc23)CC1 [Compound 65] | – | 0.04 mg/kg | 0.00063 mg/kg | – | 1.25 mg/kg | 0.08 mg/kg |
